Results on 13 molecules are retold here after US11655235B2, “Pyrrolidine and piperidine compounds” (YUHAN CORPORATION, priority 2019, dated 2023).

Structures are written as SMILES. A value given as a limit tells only on which side of the number the result lay.

Common to all, as to type: biochemical
Test [1] has as its target T1, recombinant human DPP9 (Homo sapiens, UniProt Q86TI2).
T1 construct: purchased R&D Systems
Description: DPP9 inhibition, fluorogenic substrate H-Gly-Pro-AMC. The settings on record: recombinant human DPP9. In short, it runs like this:
(§1)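 Enzyme per reaction: 50 ng DPP9, 20 ng DPP8, 10 ng each DPP7 and PREP. Compounds were serially diluted (8 points, up to 0.5% DMSO) and incubated at 25 °C.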

Test [2] addresses T2, recombinant human DPP8 (Homo sapiens, UniProt Q6V1X1).
T2 construct: purchased PBS Bioscience
As to the kind of experiment: DPP8 inhibition, fluorogenic substrate Z-Ala-Pro-AMC. The settings on record: recombinant human DPP8. The essentials:
as §1

For test [3], the target named is DPP4 (Homo sapiens, UniProt P27487). Description: DPP4 inhibition, fluorogenic substrate H-Gly-Pro-AMC. Details: purchased R&D Systems. Conditions: recombinant human DPP4.
Test [4] has as its target T3, recombinant human DPP7 (Homo sapiens, UniProt Q9UHL4).
T3 construct: purchased R&D Systems
As to the kind of experiment: DPP7 inhibition, fluorogenic substrate Lys-Pro-AMC. The settings on record: recombinant human DPP7. The essentials:
as §1

The target of test [5] is T4, Recombinant human FAP (Homo sapiens, UniProt Q12884).
T4 construct: purchased R&D systems
T4 sequence (Q12884 1-760): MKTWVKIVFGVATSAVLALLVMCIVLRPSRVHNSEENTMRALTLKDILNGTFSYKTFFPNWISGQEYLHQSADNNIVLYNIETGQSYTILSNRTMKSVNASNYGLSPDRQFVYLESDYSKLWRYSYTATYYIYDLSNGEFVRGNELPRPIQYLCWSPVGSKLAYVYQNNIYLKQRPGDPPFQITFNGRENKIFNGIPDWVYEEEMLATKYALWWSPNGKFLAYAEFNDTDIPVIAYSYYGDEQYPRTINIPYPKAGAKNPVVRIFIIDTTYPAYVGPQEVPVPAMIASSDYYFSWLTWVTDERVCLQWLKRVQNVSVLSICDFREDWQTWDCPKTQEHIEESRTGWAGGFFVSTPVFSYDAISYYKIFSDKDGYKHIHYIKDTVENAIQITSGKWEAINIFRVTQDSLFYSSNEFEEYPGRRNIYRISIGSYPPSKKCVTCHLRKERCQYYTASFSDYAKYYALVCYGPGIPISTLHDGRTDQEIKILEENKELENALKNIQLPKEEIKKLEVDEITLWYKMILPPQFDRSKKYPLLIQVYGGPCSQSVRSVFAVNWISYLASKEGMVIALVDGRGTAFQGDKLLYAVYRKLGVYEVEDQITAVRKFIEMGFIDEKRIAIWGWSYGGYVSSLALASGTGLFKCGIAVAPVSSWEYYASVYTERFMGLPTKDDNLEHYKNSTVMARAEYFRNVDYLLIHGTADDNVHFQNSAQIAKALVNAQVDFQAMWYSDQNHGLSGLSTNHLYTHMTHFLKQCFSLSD
Description: FAP FRET assay, FGF21-sequence FRET peptide substrate. Conditions: FRET peptide with human FGF21 sequence, 6 μM, 37° C. The essentials: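 Recombinant human FAP, 10 ng per reaction, in 50 mM HEPES pH 7.2 with 150 mM NaCl, 0.1 mg/ml BSA, 1 mM EDTA; HyLite Fluor 488/QXL 520 FRET peptide of human FGF21 sequence at 6 μM final, ≤0.1% DMSO, 37° C. IC50 from 8-point curves by four-parameter logistic fit.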

Test [6] addresses T5, recombinant human PREP (Homo sapiens, UniProt P48147).
T5 construct: purchased R&D System
T5 sequence (P48147 1-710): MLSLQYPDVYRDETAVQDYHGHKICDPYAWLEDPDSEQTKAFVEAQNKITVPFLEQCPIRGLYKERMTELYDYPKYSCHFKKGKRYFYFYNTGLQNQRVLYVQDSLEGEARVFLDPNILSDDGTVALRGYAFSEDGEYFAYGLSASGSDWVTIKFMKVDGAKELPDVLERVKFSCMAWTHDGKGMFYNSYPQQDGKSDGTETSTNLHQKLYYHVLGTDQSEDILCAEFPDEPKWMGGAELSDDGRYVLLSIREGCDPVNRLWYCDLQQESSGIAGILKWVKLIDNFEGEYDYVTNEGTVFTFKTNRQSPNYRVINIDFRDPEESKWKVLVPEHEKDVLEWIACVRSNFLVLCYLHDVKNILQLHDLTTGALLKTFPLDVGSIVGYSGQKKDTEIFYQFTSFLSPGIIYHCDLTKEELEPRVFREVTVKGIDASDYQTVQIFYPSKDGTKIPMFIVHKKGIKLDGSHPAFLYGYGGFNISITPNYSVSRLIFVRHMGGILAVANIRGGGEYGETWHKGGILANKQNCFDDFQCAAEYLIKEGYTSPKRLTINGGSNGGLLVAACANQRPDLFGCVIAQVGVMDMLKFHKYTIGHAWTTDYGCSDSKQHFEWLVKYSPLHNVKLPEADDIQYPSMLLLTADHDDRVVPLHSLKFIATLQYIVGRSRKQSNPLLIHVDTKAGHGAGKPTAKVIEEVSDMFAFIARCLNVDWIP
As to the kind of experiment: PREP inhibition, fluorogenic substrate Z-Gly-Pro-AMC. The settings on record: Inhibitory Activity (IC50, nM) PREP, recombinant human PREP. The essentials: as §1

As a reminder, the IC50 is the concentration that gives 50% inhibition.

T1 sequence (Q86TI2 whole entry): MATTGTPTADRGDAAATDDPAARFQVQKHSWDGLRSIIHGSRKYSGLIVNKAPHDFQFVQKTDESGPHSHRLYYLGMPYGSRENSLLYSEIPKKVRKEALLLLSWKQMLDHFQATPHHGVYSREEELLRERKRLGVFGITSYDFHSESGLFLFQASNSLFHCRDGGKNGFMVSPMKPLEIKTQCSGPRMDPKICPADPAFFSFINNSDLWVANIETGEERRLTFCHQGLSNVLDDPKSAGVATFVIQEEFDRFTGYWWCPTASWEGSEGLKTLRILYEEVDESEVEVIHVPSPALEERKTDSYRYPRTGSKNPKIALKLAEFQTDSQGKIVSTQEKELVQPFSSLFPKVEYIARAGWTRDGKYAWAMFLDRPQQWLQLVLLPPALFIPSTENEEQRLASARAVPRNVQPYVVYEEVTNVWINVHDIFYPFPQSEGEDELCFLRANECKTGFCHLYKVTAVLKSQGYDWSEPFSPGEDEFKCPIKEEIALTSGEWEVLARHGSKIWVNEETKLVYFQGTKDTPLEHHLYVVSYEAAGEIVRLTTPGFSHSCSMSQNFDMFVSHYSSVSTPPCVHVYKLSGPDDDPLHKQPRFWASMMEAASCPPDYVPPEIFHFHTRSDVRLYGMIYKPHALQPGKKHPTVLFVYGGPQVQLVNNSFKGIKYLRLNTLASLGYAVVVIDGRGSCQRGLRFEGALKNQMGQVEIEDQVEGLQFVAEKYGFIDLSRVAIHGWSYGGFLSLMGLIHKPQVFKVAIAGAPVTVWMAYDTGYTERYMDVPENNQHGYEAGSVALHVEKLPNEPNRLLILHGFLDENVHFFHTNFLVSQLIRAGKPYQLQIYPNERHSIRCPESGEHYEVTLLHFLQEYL
DPP4, sequence (P27487 whole entry): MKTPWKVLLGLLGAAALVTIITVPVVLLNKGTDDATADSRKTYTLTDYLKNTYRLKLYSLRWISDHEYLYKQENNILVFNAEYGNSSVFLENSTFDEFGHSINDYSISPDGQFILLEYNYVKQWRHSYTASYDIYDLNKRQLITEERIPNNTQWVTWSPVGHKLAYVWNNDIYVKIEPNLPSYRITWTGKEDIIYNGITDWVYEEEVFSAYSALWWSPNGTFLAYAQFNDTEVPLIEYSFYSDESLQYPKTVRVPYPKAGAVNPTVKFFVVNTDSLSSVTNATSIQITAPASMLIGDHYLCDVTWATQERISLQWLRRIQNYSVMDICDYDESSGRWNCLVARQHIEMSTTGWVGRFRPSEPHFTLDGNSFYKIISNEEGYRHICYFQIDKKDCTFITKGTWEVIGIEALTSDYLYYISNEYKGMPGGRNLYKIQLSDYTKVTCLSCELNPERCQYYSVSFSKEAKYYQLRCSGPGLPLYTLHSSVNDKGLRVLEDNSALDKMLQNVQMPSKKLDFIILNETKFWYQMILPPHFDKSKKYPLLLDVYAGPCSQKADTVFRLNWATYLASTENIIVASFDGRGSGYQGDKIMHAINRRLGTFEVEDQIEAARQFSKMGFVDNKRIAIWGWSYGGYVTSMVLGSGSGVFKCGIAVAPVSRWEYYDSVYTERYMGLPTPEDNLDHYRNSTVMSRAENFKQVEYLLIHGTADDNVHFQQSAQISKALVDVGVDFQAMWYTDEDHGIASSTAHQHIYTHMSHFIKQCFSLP
T2 sequence (Q6V1X1 whole entry): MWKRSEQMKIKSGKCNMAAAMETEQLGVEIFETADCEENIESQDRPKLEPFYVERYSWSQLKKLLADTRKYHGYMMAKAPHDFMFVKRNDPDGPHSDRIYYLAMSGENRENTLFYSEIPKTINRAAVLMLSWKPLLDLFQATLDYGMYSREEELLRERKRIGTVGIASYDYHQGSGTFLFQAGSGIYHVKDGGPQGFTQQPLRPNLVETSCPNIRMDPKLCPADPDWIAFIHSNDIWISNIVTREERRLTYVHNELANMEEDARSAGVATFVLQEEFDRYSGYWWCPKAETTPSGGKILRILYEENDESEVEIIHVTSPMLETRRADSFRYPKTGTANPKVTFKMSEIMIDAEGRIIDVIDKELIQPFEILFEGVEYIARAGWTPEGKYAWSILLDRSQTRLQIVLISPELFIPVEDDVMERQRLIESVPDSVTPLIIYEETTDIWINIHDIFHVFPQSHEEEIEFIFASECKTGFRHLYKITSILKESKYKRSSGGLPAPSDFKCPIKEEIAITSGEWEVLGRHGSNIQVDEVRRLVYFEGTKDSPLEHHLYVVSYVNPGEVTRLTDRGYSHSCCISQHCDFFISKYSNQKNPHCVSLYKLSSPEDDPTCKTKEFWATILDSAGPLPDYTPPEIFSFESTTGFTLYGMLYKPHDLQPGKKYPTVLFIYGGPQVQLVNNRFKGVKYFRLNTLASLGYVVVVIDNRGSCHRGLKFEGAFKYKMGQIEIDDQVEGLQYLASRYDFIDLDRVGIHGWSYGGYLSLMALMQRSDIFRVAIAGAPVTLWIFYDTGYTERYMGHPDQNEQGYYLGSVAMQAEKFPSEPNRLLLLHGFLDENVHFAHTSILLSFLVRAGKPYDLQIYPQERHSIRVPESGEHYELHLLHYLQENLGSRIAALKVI

As for `N#C[C@@H]1CCCN1C(=O)CN1CCC(Nc2ccc(C(=O)Nc3ccccn3)c3ncccc23)CC1` [Example 399, 5-[[1-[2-oxo-2-[(2S)-2-cyanopyrrolidin-1-yl]ethyl]-4-piperidyl]amino]-N-(2-pyridyl)quinoline-8-carboxamide], the IC50 in test [1] stood at 3.33 µM; in test [2], 1.2 µM; in test [3], 17.4 µM; in test [4], 1.01 µM; in test [5] it was 0.0015 µM; in test [6], 627 nM.
For `N#C[C@@H]1CCCN1C(=O)CN1CCC(Oc2ccnc3ccc(F)cc23)CC1` [Example 427, (2S)-1-[2-[4-[(6-fluoro-4-quinolyl)oxy]-1-piperidyl]acetyl]pyrrolidine-2-carbonitrile], the IC50 in test [1] is ≥ 100 µM; in test [2], 36.6 µM; in test [3], 37.2 µM; in test [4], 15.8 µM; in test [5], 0.0056 µM; in test [6] it was 5010 nM.
Turning to `COc1cccc2c(OC3CCN(CC(=O)N4C[C@@H](F)C[C@H]4C#N)CC3)ccnc12` [Example 438, (2S,4S)-4-fluoro-1-[2-[4-[(8-methoxy-4-quinolyl)oxy]-1-piperidyl]acetyl]pyrrolidine-2-carbonitrile], the 50% inhibitory concentration (IC50) in test [1] came to 5.97 µM; in test [2] it was 3.38 µM; in test [3], 5.67 µM; in test [4] it was 3.58 µM; in test [5], 0.0077 µM; in test [6], 156 nM.
Turning to `N#Cc1cccc2c(OC3CCN(CC(=O)N4C[C@@H](F)C[C@H]4C#N)CC3)ccnc12` [Example 434, 4-[[1-[2-oxo-2-[(2S,4S)-2-cyano-4-fluoro-pyrrolidin-1-yl]ethyl]-4-piperidyl]oxy]quinoline-8-carbonitrile], the IC50 came out at 4.51 µM in test [1]; 2.74 µM in test [2]; 2.44 µM in test [3]; 4.31 µM in test [4]; 0.0036 µM in test [5]; 395 nM in test [6].
For the molecule `N#C[C@@H]1CCCN1C(=O)CN1CC[C@@H](Nc2ccc(OC(F)(F)F)c3ncccc23)C1` [Example 202, (2S)-1-[2-[(3R)-3-[[8-(trifluoromethoxy)-5-quinolyl]amino]pyrrolidin-1-yl]acetyl]pyrrolidine-2-carbonitrile], the IC50 amounted to 13.1 µM in test [1]; 14.2 µM in test [2]; 12.1 µM in test [3]; 6.81 µM in test [4]; 0.0023 µM in test [5]; 8080 nM in test [6].
Regarding `N#C[C@@H]1CCCN1C(=O)CN1CCC(Nc2ccc(C(=O)Nc3ccncc3)c3ncccc23)CC1` [Example 401, 5-[[1-[2-oxo-2-[(2S)-2-cyanopyrrolidin-1-yl]ethyl]-4-piperidyl]amino]-N-(4-pyridyl)quinoline-8-carboxamide], the half-inhibitory concentration (IC50) in test [1] was 1.61 µM; in test [2], 0.266 µM; in test [3], 15.2 µM; in test [4] it was 0.775 µM; in test [5] it was 0.0059 µM; in test [6], 1200 nM.
For `N#C[C@@H]1CCCN1C(=O)CN1CC[C@@H](Nc2ccc(F)c3ncccc23)C1` [Example 199, (2S)-1-[2-[(3R)-3-[(8-fluoro-5-quinolyl)amino]pyrrolidin-1-yl]acetyl]pyrrolidine-2-carbonitrile], the IC50 in test [1] worked out at 10.9 µM; in test [2], 8.23 µM; in test [3], 2.62 µM; in test [4], 8.01 µM; in test [5], 0.0023 µM; in test [6], 7250 nM.
As to `N#C[C@@H]1C[C@H](F)CN1C(=O)CN1CCC(Nc2ccc(C(=O)Nc3ccncc3)c3ncccc23)CC1` [Example 406, 5-[[1-[2-oxo-2-[(2S,4S)-2-cyano-4-fluoro-pyrrolidin-1-yl]ethyl]-4-piperidyl]amino]-N-(4-pyridyl)quinoline-8-carboxamide], the IC50 in test [1] was 0.218 µM; in test [2] it was 0.0233 µM; in test [3], 2.7 µM; in test [4], 0.402 µM; in test [5], 0.0042 µM; in test [6], 535 nM.
For `CNC(=O)c1ccc(N[C@H]2CCN(CC(=O)N3CCC[C@H]3C#N)C2)c2cccnc12` [Example 286, N-methyl-5-[[(3S)-1-[2-oxo-2-[(2S)-2-cyanopyrrolidin-1-yl]ethyl]pyrrolidin-3-yl]amino]quinoline-8-carboxamide], the IC50 is 32.2 µM in test [1]; 19.8 µM in test [2]; 10.9 µM in test [3]; 3.1 µM in test [4]; 0.0093 µM in test [5]; 6300 nM in test [6].
Consider `Cc1cnc2cccc(N(C)[C@H]3CCN(CC(=O)N4C[C@@H](F)C[C@H]4C#N)C3)c2c1` [Example 155, (2S,4S)-4-fluoro-1-[2-[(3S)-3-[methyl-(3-methyl-5-quinolyl)amino]pyrrolidin-1-yl]acetyl]pyrrolidine-2-carbonitrile], for which the IC50 in test [1] is 5.72 µM; in test [2], 9.85 µM; in test [3] it was 1.85 µM; in test [4], 2.9 µM; in test [5], 0.0024 µM; in test [6], 2540 nM.
For `N#C[C@@H]1C[C@H](F)CN1C(=O)CN1CCC(Nc2ccc(C(=O)Nc3ccccn3)c3ncccc23)CC1` [Example 404, 5-[[1-[2-oxo-2-[(2S,4S)-2-cyano-4-fluoro-pyrrolidin-1-yl]ethyl]-4-piperidyl]amino]-N-(2-pyridyl)quinoline-8-carboxamide], the half-maximal inhibitory concentration (IC50) in test [1] amounted to 0.681 µM; in test [2] it was 0.596 µM; in test [3], 4.73 µM; in test [4] it was 0.634 µM; in test [5], 0.0018 µM; in test [6], 78.3 nM.
As for `N#C[C@@H]1C[C@H](F)CN1C(=O)CN1CC[C@@H](Nc2cccc3ncc(F)cc23)C1` [Example 184, (2S,4S)-4-fluoro-1-[2-[(3R)-3-[(3-fluoro-5-quinolyl)amino]pyrrolidin-1-yl]acetyl]pyrrolidine-2-carbonitrile], the IC50 in test [1] came out at 5.15 µM; in test [2], 2.43 µM; in test [3], 1.29 µM; in test [4], 2.76 µM; in test [5], 0.0032 µM; in test [6] it was 3150 nM.
For the molecule `Cc1cccc2c(OC3CCN(CC(=O)N4C[C@@H](F)C[C@H]4C#N)CC3)ccnc12` [Example 439, (2S,4S)-4-fluoro-1-[2-[4-[(8-methyl-4-quinolyl)oxy]-1-piperidyl]acetyl]pyrrolidine-2-carbonitrile], the IC50 in test [1] was 5.46 µM; in test [2] it was 2.7 µM; in test [3] it was 6.31 µM; in test [4], 3.11 µM; in test [5] it was 0.0037 µM; in test [6], 75 nM.
